Source: patent publication US20260325533A1, “CDK INHIBITOR COMPOUNDS” (ALEKSIA THERAPEUTICS, INC., priority 2023, published 2026)
Where two headings read alike, the source gives them in different places.

Key:
CDK1/CCNB1 = CDK1/CCNB1 (Homo sapiens, UniProt P06493); experiment: CDK1 homogeneous time-resolved fluorescence (HTRF) kinase assay; assay type: biochemical
Experimental: (§1) A CDK homogeneous time-resolved fluorescence (HTRF) assay was used to assess the potency of the compounds described herein.
(§2) To an untreated 384-well microtiter plate (ProxiPlate) was added 100 nL 100×test compound in DMSO and 5 μL 2×CDK enzyme in assay buffer (50 mM HEPES, 1 mM EGTA, 10 mM MgCl2, 0.01% Tween 20, 2 mM DTT). The plate was centrifuged at 800 RPM for 1 min then incubated for 20 min at 23 °C. 2.5 μL per well of 4×ATP and 2.5 μL 4×ULight™-eIF4E-binding protein 1 (Thr37/46) Peptide substrate were added to all wells. After addition, the plates were centrifuged at 800 RPM for 1 min. The plates were incubated at 23 °C for 60 min. 5 μL per well 4×EDTA solution were added to each well to stop the reaction. 5 μL 4×LANCE Ultra Europium-anti-phospho-eIF4E-binding protein 1 (Thr37/46) antibody were added to each well and the plate was centrifuged for 1 min at 800 RPM. The plate was incubated for 60 min at 23 °C. Fluorescence was read at 340 nm excitation and 665 nm emission on an En Vision 2105 fluorescence reader. The final concentrations of reagents in the activity assay were 0.5 nM CDK1/CCNB1, 1 mM ATP, 50 nM ULight™-eIF4E-binding protein 1 (Thr37/46) Peptide substrate, 1% DMSO, 10 mM EDTA, and 2 nM LANCE Ultra Europium-anti-phospho-eIF4E-binding protein 1 (Thr37/46).
(§3) Dose-response titrations were conducted by using an 11-point, half-logarithmic serial dilution scheme typically starting at 10 μM. Signals were reported as fluorescence units at 665 nm or the ratio of fluorescence units at 665 nm/fluorescence units at 615 nm. Signals are referred to below as “Lance signals”.
(§4) Using this assay, the IC50 values of example compounds were determined. Table 3 illustrates the IC50 for various Example compounds of Formula IA. Table 4 illustrates the IC50 for various other Example compounds of Formula I. ND=not determined.

CDK2/CCNE1 = CDK2/CCNE1 (Homo sapiens, UniProt P24941); experiment: CDK2 homogeneous time-resolved fluorescence (HTRF) kinase assay; assay type: biochemical
Experimental: as §1
as §2, with “3” for “0.5”, “CDK2/CCNE1,” for “CDK1/CCNB1,”
as §3, §4

[1] = CDK1/CCNB, >250 nM marked x, read-out: CDK1/CCNB IC50 >250 nM
[2] = CDK2/CCNE, 25-250 nM marked x, read-out: CDK2/CCNE IC50 25-250 nM
[3] = CDK2/CCNE, >250 nM marked x, read-out: CDK2/CCNE IC50 >250 nM
[4] = CDK2/CCNE, <25 nM, read-out: CDK2/CCNE IC50 <25 nM

Sequence of CDK1/CCNB1 (P06493 whole entry): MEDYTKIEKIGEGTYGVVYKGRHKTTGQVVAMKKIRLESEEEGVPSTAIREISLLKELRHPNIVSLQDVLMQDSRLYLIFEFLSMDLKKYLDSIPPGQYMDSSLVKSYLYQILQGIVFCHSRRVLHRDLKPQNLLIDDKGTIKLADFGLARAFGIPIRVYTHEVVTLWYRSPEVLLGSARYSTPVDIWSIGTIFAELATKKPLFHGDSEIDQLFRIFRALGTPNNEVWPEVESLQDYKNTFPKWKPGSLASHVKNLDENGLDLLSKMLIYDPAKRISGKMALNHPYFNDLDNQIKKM
Sequence of CDK1/CCNB1 (P14635 whole entry partner): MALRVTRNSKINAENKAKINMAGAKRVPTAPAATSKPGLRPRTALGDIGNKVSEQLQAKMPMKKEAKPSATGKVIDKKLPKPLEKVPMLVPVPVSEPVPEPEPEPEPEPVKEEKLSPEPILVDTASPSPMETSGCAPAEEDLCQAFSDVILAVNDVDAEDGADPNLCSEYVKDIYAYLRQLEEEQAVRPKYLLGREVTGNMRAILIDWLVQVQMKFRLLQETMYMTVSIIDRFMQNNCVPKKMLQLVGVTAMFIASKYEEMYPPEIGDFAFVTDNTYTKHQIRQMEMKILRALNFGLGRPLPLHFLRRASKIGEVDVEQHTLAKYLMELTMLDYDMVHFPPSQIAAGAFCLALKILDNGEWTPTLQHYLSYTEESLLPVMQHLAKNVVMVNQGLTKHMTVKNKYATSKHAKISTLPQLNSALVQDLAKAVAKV

SMILES	IC50 (CDK1/CCNB1; [1]) [nM]	IC50 (CDK2/CCNE1; [2]) [nM]	other results
CS(=O)(=O)c1ccc(Nc2cc3c(N4CCC(C#N)CC4)ccnc3cn2)cc1 [Example 959, 1-(6-((4-(methylsulfonyl)phenyl)amino)-1,7-naphthyridin-4-yl)piperidine-4-carbonitrile]			IC50 (CDK1/CCNB1; 0.5 nM CDK1/CCNB1, 1 mM ATP, read-out: CDK1/CCNB IC50 >250 nM): > 250 nM; IC50 (CDK2/CCNE1; 3 nM CDK2/CCNE1, 1 mM ATP, read-out: CDK2/CCNE IC50 >250 nM): > 250 nM
CCN(C)c1nccc2cnc(NC3CCN(S(C)(=O)=O)CC3)cc12 [Ex 38, N1-ethyl-N1-methyl-N7-(1-(methylsulfonyl)piperidin-4-yl)-2,6-naphthyridine-1,7-diamine]			IC50 (CDK1/CCNB1; CDK1/CCNB, 25-250 nM marked x, read-out: CDK1/CCNB IC50 25-250 nM): 25 to 250 nM; IC50 (CDK2/CCNE1; [4]): < 25 nM
Cc1c(-c2nccc3cnc(Nc4ccc(S(C)(=O)=O)cc4)cc23)ccc2c1cnn2C1CCOCC1 [Ex 164, 5-(4-methyl-1-(tetrahydro-2H-pyran-4-yl)-1H-indazol-5-yl)-N-(4-(methylsulfonyl)phenyl)-2,6-naphthyridin-3-amine]	> 250	25 to 250	
CS(=O)(=O)N1CCC(Nc2cc3c(-c4cnc5[nH]ccc5c4)nccc3cn2)CC1 [Ex 88, N-(1-(methylsulfonyl)piperidin-4-yl)-5-(1H-pyrrolo[2,3-b]pyridin-5-yl)-2,6-naphthyridin-3-amine]	> 250	25 to 250	
CS(=O)(=O)N1CCC(Nc2cc3c(N4CCCCC4)nc(CO)cc3cn2)CC1 [Example 17, (7-((1-(methylsulfonyl)piperidin-4-yl)amino)-1-(piperidin-1-yl)-2,6-naphthyridin-3-yl)methanol]	> 250	25 to 250	
N#CC1CCN(c2nccc3cnc(Nc4cccc(C(=O)ON5C(=O)CCC5=O)c4)cc23)CC1 [Ex 111, 2,5-dioxopyrrolidin-1-yl 3-((5-(4-cyanopiperidin-1-yl)-2,6-naphthyridin-3-yl)amino)benzoate]	> 250	25 to 250	
CS(=O)(=O)N1CCC(Nc2cc3c(-c4ccc(C(F)(F)F)nc4)nccc3cn2)CC1 [Ex 62, N-(1-(methylsulfonyl)piperidin-4-yl)-5-(6-(trifluoromethyl)pyridin-3-yl)-2,6-naphthyridin-3-amine]	> 250	25 to 250	
CS(=O)(=O)c1ccc(Nc2cc3c([C@@H]4CCC[C@H](O)C4)nccc3cn2)cc1 (racemic) [Ex 203, (1S,3R)-3-(7-((4-(methylsulfonyl)phenyl)amino)-2,6-naphthyridin-1-yl)cyclohexan-1-ol (cis, racemic)]	> 250	25 to 250	
CS(=O)(=O)c1ccc(Nc2cc3c(-c4cc5cc[nH]c5cn4)nccc3cn2)cc1 [Ex 135, N-(4-(methylsulfonyl)phenyl)-5-(1H-pyrrolo[2,3-c]pyridin-5-yl)-2,6-naphthyridin-3-amine]	> 250	25 to 250	
CS(=O)(=O)N1CCC(Nc2cc3c(N(CO)Cc4ccccc4)nccc3cn2)CC1 [Ex 53, (benzyl(7-((1-(methylsulfonyl)piperidin-4-yl)amino)-2,6-naphthyridin-1-yl)amino)methanol]	> 250	25 to 250	
CS(=O)(=O)N1CCC(Nc2cc3c(C(=O)N4CCC(O)CC4)nccc3cn2)CC1 [Example 12, (4-hydroxypiperidin-1-yl)(7-((1-(methylsulfonyl)piperidin-4-yl)amino)-2,6-naphthyridin-1-yl)methanone]	> 250		IC50 (CDK2/CCNE1; [3]): > 250 nM
CS(=O)(=O)N1CCC(Nc2cc3c(-c4ccc(C(=O)O)cc4)nccc3cn2)CC1 [Ex 86, 4-(7-((1-(methylsulfonyl)piperidin-4-yl)amino)-2,6-naphthyridin-1-yl)benzoic acid]	> 250		IC50 (CDK2/CCNE1; [3]): > 250 nM
COc1ncc(-c2nccc3cnc(NC4CCN(S(C)(=O)=O)CC4)cc23)cn1 [Ex 85, 5-(2-methoxypyrimidin-5-yl)-N-(1-(methylsulfonyl)piperidin-4-yl)-2,6-naphthyridin-3-amine]	> 250		IC50 (CDK2/CCNE1; [3]): > 250 nM
N#CC1CCN(c2nccc3cnc(Nc4cccc(OS(=O)(=O)F)c4)cc23)CC1 [Example 13, 3-((5-(4-cyanopiperidin-1-yl)-2,6-naphthyridin-3-yl)amino)phenyl sulfurofluoridate]			IC50 (CDK1/CCNB1): > 250 nM; IC50 (CDK2/CCNE1): > 250 nM
CS(=O)(=O)N1CCC(Nc2cc3c(C(=O)N4CCCC(C#N)C4)nccc3cn2)CC1 (racemic) [Ex 98, 1-(7-((1-(methylsulfonyl)piperidin-4-yl)amino)-2,6-naphthyridine-1-carbonyl)piperidine-3-carbonitrile]	> 250	25 to 250	
C=CS(=O)(=O)N1CCC(Nc2cc3c(N4CCC(O)CC4)nccc3cn2)CC1 [Ex 105, 1-(7-((1-(vinylsulfonyl)piperidin-4-yl)amino)-2,6-naphthyridin-1-yl)piperidin-4-ol]	> 250		IC50 (CDK2/CCNE1; [4]): < 25 nM

Continued, in another order:

IC50 (CDK1/CCNB1; [1]) [nM]	IC50 (CDK2/CCNE1; [2]) [nM]	SMILES	other results
> 250	25 to 250	Cc1c(-c2nccc3cnc(Nc4ccc(S(C)(=O)=O)cc4)cc23)ccc2nn(CC3CNC3)cc12 [Ex 196, 5-(2-(azetidin-3-ylmethyl)-4-methyl-2H-indazol-5-yl)-N-(4-(methylsulfonyl)phenyl)-2,6-naphthyridin-3-amine]	
> 250	25 to 250	CS(=O)(=O)N1CCC(Nc2cc3c(N4CCCCC4)nc(CCO)cc3cn2)CC1 [Example 19, 2-(7-((1-(methylsulfonyl)piperidin-4-yl)amino)-1-(piperidin-1-yl)-2,6-naphthyridin-3-yl)ethan-1-ol]	
> 250	25 to 250	C=CS(=O)(=O)N1CCC(Nc2cc3c(N4CCC(OC(C)=O)C4)nccc3cn2)CC1 (racemic) [Ex 104, 1-(7-((1-(vinylsulfonyl)piperidin-4-yl)amino)-2,6-naphthyridin-1-yl)pyrrolidin-3-yl acetate]	
> 250		Cn1nncc1-c1nccc2cnc(Nc3ccc(S(C)(=O)=O)cc3)cc12 [Ex 144, 5-(1-methyl-1H-1,2,3-triazol-5-yl)-N-(4-(methylsulfonyl)phenyl)-2,6-naphthyridin-3-amine]	IC50 (CDK2/CCNE1; [3]): > 250 nM
> 250	25 to 250	N#CC1CCN(c2nccc3cnc(Nc4cccc(C(=O)NC5CCSC5=O)c4)cc23)CC1 (racemic) [Ex 112, 3-((5-(4-cyanopiperidin-1-yl)-2,6-naphthyridin-3-yl)amino)-N-(2-oxotetrahydrothiophen-3-yl)benzamide]	
> 250		Cc1cc2cnc(NC3CCN(S(C)(=O)=O)CC3)cc2c(N2CCCCC2)n1 [Example 25, 7-methyl-N-(1-(methylsulfonyl)piperidin-4-yl)-5-(piperidin-1-yl)-2,6-naphthyridin-3-amine]	IC50 (CDK2/CCNE1; [3]): > 250 nM
> 250	25 to 250	C=CS(=O)(=O)c1ccc(Nc2cc3c(-c4cccc(C(F)(F)F)c4)nccc3cn2)cc1 [Ex 160, 5-(3-(trifluoromethyl)phenyl)-N-(4-(vinylsulfonyl)phenyl)-2,6-naphthyridin-3-amine]	
> 250	25 to 250	COC(=O)C1CSC(c2nccc3cnc(Nc4ccc(S(C)(=O)=O)cc4)cc23)=N1 (racemic) [Ex 169, methyl 2-(7-((4-(methylsulfonyl)phenyl)amino)-2,6-naphthyridin-1-yl)-4,5-dihydrothiazole-4-carboxylate]	
> 250	25 to 250	N#CC1CCN(c2nccc3cnc(Nc4cccc(CO)c4)cc23)CC1 [Ex 134, 1-(7-((3-(hydroxymethyl)phenyl)amino)-2,6-naphthyridin-1-yl)piperidine-4-carbonitrile]	
